Experimental data from a melting point compilation (Tetko et al.; mined from patent text by program, amines drawn as free bases though some values may be those of a salt).

| melting point [°C] | Structure (SMILES) |
| --- | --- |
| 242 to 245 | Cc1oc2c(C)c(C)c(NC(=O)c3ccc(F)cc3)c(C)c2c1-c1ccc(C(C)C)cc1 |
| 96 to 97 | CC1CCN(Cc2ccccc2)C1=Nc1ccccc1N1CCOCC1 (stereo not drawn) |
| 157 to 159 | COc1cc2c3c(c1)c(=O)c(Cc1cccnc1)cn3-c1ccc(Br)cc1S2 |
| > 350 | O=c1[nH]c2cc(Cl)ccc2c(O)c1-c1ccc2ccccc2c1 |
| 180 to 182 | COc1ccc(-c2cccc(S(=O)(=O)N3CCC(Nc4nc(Nc5cccc(C(F)(F)F)c5)nc(OCC(F)(F)F)n4)CC3)c2)cc1 |
| 63 to 64 | CC(=O)OC[C@H]1CCn2c(cc3ccccc32)C1 |
| 193 to 194 | COC(=O)c1c(OC)cc(CC(C#N)=CNc2ccccc2)cc1OC |
| 63 to 64 | CCOc1ccc(C=CC(=O)c2c(OC)cc(OC)cc2OP(=O)(O)O)cc1 |
| 58 to 59 | CCCCc1nn(-c2ccc(C(F)(F)F)cn2)cc1C(=O)OCC |
| 98 to 100 | COC(=O)C(C)(C)OCC#Cc1cc(Cl)ccc1NS(=O)(=O)c1ccc2c(c1)OCCN2C |
| 293 to 295 | Cc1ccc([N+](=O)[O-])c(C=C2NC(=O)NC2=O)c1C |
| 112 to 115 | COCCOC(=O)COc1cc(F)ccc1C(=O)NCc1cccc([N+](=O)[O-])c1 |
| 153 to 154 | CCOC(=O)C=Cn1c(=O)n2nc(C(=O)OCC)cc2c2cc(OC)ccc21 |
| 200 to 201 | CCCn1c(=O)c2[nH]c(C34CCC(C)(C(=O)C3=O)C4(C)C)nc2n(CCC)c1=O (stereo not drawn) |
| 205 to 208 | Cc1nc2cc(-c3ccccc3C#N)ccc2[nH]1 |
| 200 to 202 | CCNC1CCN(c2cccc(-c3cnc4[nH]cc(C(=O)C(C)(C)C)c4n3)c2)C1 (stereo not drawn) |
| 232 to 234 | O=C1CCC(Nc2ncc3ncnc(Nc4ccc(F)c(Cl)c4)c3n2)CC1 |
| 65 to 66 | COc1cccc(CN[C@@H](C)C2CCCCC2)c1O |
| 104 | CCOC(=O)c1sc(C)nc1O |
| 132 to 134 | O=C(Nc1ccc(I)cc1)OCc1ccccc1 |

| melting point [°C] | Structure (SMILES) |
| --- | --- |
| 216 | Cc1nn(CCCl)c(-c2ccc(F)cc2)c1-c1ccc2c(c1)NC(=O)CO2 |
| 215 to 217 | COc1c(/C=C/C(=O)Nc2ccccc2)c(=O)c2ccc(Cl)cc2[nH]c1=O |
| 160 to 161 | Cc1cc(OC(C)c2ccc(-c3ccccc3-c3nnn(C(c4ccccc4)(c4ccccc4)c4ccccc4)n3)cc2)c2ccccc2n1 (stereo not drawn) |
| 78 | CC(=O)SCC(Cc1ccccc1)NC(=O)N1CCN(C)CC1 (single isomer, unassigned; (+)) |
| 82 to 85 | CCC(CC)Oc1ccc(/C=C/C(=O)Nc2ccccc2C(=O)O)cc1OC |
| 153 to 154 | Cc1cc(Cl)c(N2C(=O)Cc3cc(C)ccc32)c(Cl)c1 |
| 127 to 129 | CC(C)CC1(CC(=O)NO)C(=O)N(CCc2ccccc2)C(=O)N1C (stereo not drawn) |
| 210 | Cc1cccc(-c2sc(N)nc2-c2ccnc(-c3ccc(CN(C)C)cc3)c2)n1 |
| 261 to 264 | Cc1ncc([N+](=O)[O-])n1CCn1c(=O)[nH]c2ccccc2c1=O |
| 121 to 131 | C[C@@H](n1cnc2cc(N3CCN(C)CC3)ccc2c1=O)[C@](O)(Cn1cncn1)c1ccc(F)cc1F |
| 155 to 158 | CNc1ccc2c(c1)nc(CCc1ccc(C#N)cc1)n2C |
| 244 to 246 | CCCCc1nc2cc(Cl)c(Cl)cc2n1Cc1ccc(C(=O)O)cc1 |
| 193 to 195 | COC(=O)c1c(N)ncn1C1c2ccccc2CCC1(C)C (stereo not drawn) |
| 93.5 to 94 | COC(=O)NNC(=S)Cc1ccc(C(C)(C)C)cc1 |
| 118 | CC(C)(C)OC(=O)COC(=O)CCc1c(OCC(=O)OC(C)(C)C)ccc2ccc(OCC(=O)OC(C)(C)C)cc12 |
| 178 to 180 | Cc1ccc(-c2c(N)ncnc2OCCOc2ncc(Br)cn2)cc1 |
| 69 to 71 | O=CCCCCCN1C(=O)c2ccccc2C1=O |
| 156 to 157 | CC(C)(C)c1ccc(CCC2CO2)cc1NC(=O)CC1c2ccccc2Oc2ccccc21 (stereo not drawn) |
| 130 to 133 | COc1cc(OC)cc(C(=O)NCC23CC4CC(CC(C4)C2)C3)c1 |
| 108 to 109 | CCOC(=O)c1cnn(Cc2ccc(OCc3nc(-c4ccccc4)oc3C)cc2)c1 |

| melting point [°C] | Structure (SMILES) |
| --- | --- |
| 184 to 186 | CCc1nc(/C=C/c2cn(-c3ccccc3)nc2O)c(C)s1 |
| 217 to 219 | CNC(=S)N1CCc2cc(S(=O)(=O)N3CC(c4ccccc4)NC3=O)ccc21 (stereo not drawn) |
| > 400 | CSc1nc2ccc(C)cc2c2nn(-c3ccccc3)c(=O)n12 |
| 81 to 85 | CC1(c2ccccc2)OC(=S)N(Nc2ccccc2)C1=O (stereo not drawn) |
| 130 to 132 | N#Cc1cccc(Oc2ccc(CBr)cc2)c1C#N |
| 282 to 288 | O=C(Nc1ccc(C(=O)N2CCc3cn[nH]c3-c3sccc32)c(Cl)c1)c1cc(Cl)ccc1F |
| 148 to 149 | CCOC(=O)c1ccc(-n2nc(-c3ccccc3O)nc2-c2ccccc2O)cc1 |
| 131 to 132 | CCOc1nc(Cl)nc2c1oc1nc(-c3ccccc3)cc(C)c12 |
| 158 | CCOC(=O)c1nc2cccnc2n(-c2ccc(Cl)cc2)c1=O |
| 225 to 227 | CC(C)Nc1nc2c(Cl)cccc2n1[C@H]1O[C@@H](CO)[C@H](O)[C@@H]1O |
| 254 to 255 | Cc1nnc2cc(-c3ccccc3)c3cc(Cl)ccc3n12 |
| 114 to 117 | COc1ccc2c(c1)c(C1=C(c3cn(C)c4ccc(OC)cc34)C(=O)N(C)C1=O)cn2C |
| 186 to 189 | COc1cc(NC2=C(Cl)C(=O)c3ccccc3C2=O)ccc1S(=O)(=O)Nc1ccc(C)cc1 |
| 138 to 140 | Cc1cc(C)c(CC(=O)NNC(=O)OC(C)(C)C)c(C)c1 |
| 97 to 99 | CC(C)(C)OC(=O)N1CCC(C(=O)Nc2ccccc2Oc2ccc(Cl)cc2)CC1 |
| 176 to 177 | COc1cc(O)c(Cl)c2cc(-c3ccc(O)cc3)oc12 |
| 79 to 81 | CCS(=O)(=O)Nc1ccc(F)cc1Br |
| 116 to 117 | Cc1nc(-n2cnn(CC3CC3)c2=O)sc1C(=O)NCc1cccnc1 |
| 43 to 45 | COC(=O)CCCCc1cccnc1CNC=O |

Continued, compound first:

| Structure (SMILES) | melting point [°C] |
| --- | --- |
| CC(=O)NC(=Cc1ccccc1)C1=NC(=Cc2ccc(C)s2)C(=O)O1 | 193 to 194 |
| CC(=O)c1cc(-c2ccncc2)sc1Oc1cc(F)ccc1F | 119 to 121 |
| CCNCC1CCN(c2c(F)cc3c(=O)c(C(=O)O)cn(C4(C)CC4)c3c2F)C1 (stereo not drawn) | 261 to 263 |
| CCOC(=O)Cn1c(=O)c(=O)[nH]c2cc(C(F)(F)F)c(-n3ccc(C=NOCc4ccccc4)c3)cc21 | 142 to 147 |
| COC(=O)c1cc(N)cc(CNC(=O)OC(C)(C)C)c1 | 57 to 65 |
| COC(=O)c1ccc(SC)cn1 | 71 to 73 |
| CC(C)(C)OC(=O)C=C(c1ccc(C#N)s1)n1ccnc1 | 90 to 91 |
| CCOC(=O)C1(C(=O)OCC)CCC2(CC1)NCCc1cc(OC)ccc12 | 81 to 83 |
| O=S(=O)(CC1CS1)c1ccc(Oc2ccccc2)cc1 (stereo not drawn) | 99 to 101 |
| COc1ccc2c(c1O)NC(=O)C1CCCN1C2=O (stereo not drawn) | 275 to 278 |
| CC(C)(C)c1cc(-c2nn(CCC(N)=O)c3ncccc23)cc(C(C)(C)C)c1O | 154 to 157 |
| C#CCN(c1cc(-c2ccnc3c(C(=O)c4cccs4)cnn23)ccc1F)S(C)(=O)=O | 149 to 153 |
| CC(C)(C)CC(C)(C)c1cc(-n2nc3ccc(Cl)cc3n2)c(O)c(C(C)(C)c2ccccc2)c1 | 104 to 105 |
| COC(=O)c1cc(=O)n(-c2c(Cl)cc(C(F)(F)F)cc2Cl)[nH]1 | 245 to 246 |
| N#CC1CN1OCc1ccc(Cl)cc1 (stereo not drawn) | 45 to 48 |
| COc1cc2ccc([C@](O)(c3c[nH]cn3)C(C)C)cc2cc1OC | 156 to 157 |
| Cc1csc2nc(-c3ccc(C(=O)O)cc3)nc(Cc3ccc4c(c3)OCO4)c12 | 250 |
| COc1ccc(-c2cc3ccc(OC)cc3s2)cc1 | 193 to 194 |
| O=[N+]([O-])c1cccc(P(=O)(O)O)c1 | 148 to 155 |
| N#Cc1nn(-c2c(Cl)cc(C(F)(F)F)cc2Cl)c(N)c1-c1ccc(Cl)cc1 | 235 to 237 |

| Structure (SMILES) | melting point [°C] |
| --- | --- |
| Cn1cc(C(=O)F)c(C(F)F)c1 | 53 to 54 |
| CCN1c2ncc(Br)cc2C(=O)N(C)c2ccc(F)nc21 | 154 to 156 |
| Cc1c(C(=O)C(N)=O)c2c(OCC(=O)O)cccc2n1Cc1ccccc1 | 218 to 220 |
| ClC1(Cl)OC(Cl)(Cl)c2ccccc21 | 85 to 86 |
| CCN(CC)c1nc(C)cc(O)n1 | 131 to 132 |
| CCCN(CCC)Cc1cnc(-c2ncn3c2CN(C)C(=O)c2ccccc2-3)o1 | 133 to 135 |
| CC[C@H](NC(=O)c1cc(F)ccc1NS(=O)(=O)c1cccc2cccnc12)c1ccccc1 | 163 |
| NCC(=O)N1CCN(C(=O)c2cc(C(F)(F)F)cc(C(F)(F)F)c2)[C@H](Cc2c[nH]c3ccccc23)C1 | 110 to 120 |
| Cc1ccc(S(=O)(=O)CNCC(CS(=O)(=O)c2ccccc2Oc2ccc(OC(F)(F)F)cc2)N(O)C=O)cc1 (stereo not drawn) | 161 to 162 |
| O=c1oc(=Cc2ccccc2)c(=Cc2ccccc2)o1 | 115 |
| CN(C)C1(c2ccccc2)CCC(c2cc3ccccc3n2S(=O)(=O)c2ccccc2)CC1 (stereo not drawn) | 139 to 142 |
| O=S(=O)(Nc1cccc2cc(C3=NCCS3)[nH]c12)c1cccs1 | 189 to 190 |
| CCCCCc1cc(O)c2c(c1)OC(C)(C)[C@@H]1CCC(=O)C[C@H]21 (relative stereo) | 120 to 134 |
| O=C(NC(=O)c1ccc(F)c(OC(F)F)c1F)NC1CC1 | 128 to 130 |
| CC(C)(C)NC(CO)c1cc(Cl)c(N)c(C(F)(F)F)c1 (stereo not drawn) | 85 to 90 |
| CCOC(=O)c1csc(/C=C/c2cn(-c3ccccc3)nc2OCc2ccc(OCc3nc(-c4ccco4)oc3C)c(OC)c2)n1 | 156 to 157 |
| CSCCNC(=O)N(C)c1cnc(-c2cncc(F)c2)s1 | 117 to 119 |
| CS(=O)(=O)N1Cc2cccc(-c3ccc4cnc(Nc5ccc(C6CCN(CC(N)=O)CC6)cc5)nn34)c2C1 | 244 to 247 |
| CCOC(=O)c1sc(-c2ccccc2)nc1O | 114 to 116 |
